# Test results taken from PMC9901178 (bioRxiv, 2023).
# How the values were obtained:
# PKC = PKC activity by western blot of phosphorylated pan-PKC substrates; assay type: cell-based, human; conditions: Go6983 5 μM, HEK293/GC-A^+/AT1^+ cells
# [1] = test system: HEK293/GC-A^+/AT1^+ cells; experiment: Intracellular cGMP generation in HEK293/GC-A+/AT1+ cells; assay type: cell-based, human; conditions: ANP 10^−8 M, ANGII 10^−8 M
Compound,"PKC activity, phosphorylated status of pan-PKC substrates (PKC)",Rescue of the suppression effect of ANGII on ANP-induced cGMP ([1]; Go6983 5 μM),Rescue of the suppression effect of ANGII on ANP-induced cGMP ([1]; valsartan 1 μM)
COc1ccc2c(c1)c(C1=C(c3c[nH]c4ccccc34)C(=O)NC1=O)cn2CCCN(C)C [Go6983],effectively inhibited PKC activity,significantly rescued,–
CCCCC(=O)N(Cc1ccc(-c2ccccc2-c2nnn[nH]2)cc1)[C@H](C(=O)O)C(C)C [valsartan],–,–,significantly rescued
